Consider 5 compounds from patent US6147107A, “Specific inhibition of the P42/44 mitogen activated protein (map) kinase cascade sensitizes tumor cells” (priority 1998, dated 2000).

Assay [1] has as its system MEK1 and MEK2. Particulars: general statement on known inhibitors; cited from earlier work.
Assay [2] concerns A431 cells. Put plainly: TUNEL assay, apoptosis of A431 cells after radiation. The assay is classed as cell-based, human. Particulars: 2 μM inhibitor + 2 Gy, 24 hours. On the procedure:
The ability of the cells to survive was assessed using TUNEL assays 24 hours after irradiation and the results are depicted in FIG. 4.

The test system of assay [3] is MEK1 and MEK2. Put plainly: Inhibition of Raf-mediated phosphorylation/activation of MEK1/2. Particulars: for inhibition of MEK1 and MEK2: general statement; for inhibition of Raf phosphorylation of MEK1 and MEK2: stated as demonstrated by the applicant. The assay is classed as biochemical.
The next assay deals with primary hepatocytes. In words: TUNEL assay, primary hepatocytes after radiation. The assay is classed as cell-based. Particulars: SL327 (2 μM) + 2×2 Gy, 12 hours. On the procedure: (§1) Experimental cells were exposed to radiation (2×2 Gy), or treated with the p42/44 MAP kinase inhibitory drug SL327 (2 μM), or treated with SL327 and exposed to radiation. Twelve hours after the final irradiation, cells were assessed by the TUNEL assay.
(§2) This is highly relevant because the neoplastic cells which are targeted for destruction by radiation therapy are rapidly proliferating, in contrast to most normal slowly growing somatic cells. Primary hepatocytes (representing slow growing "normal" cells) and HepG2 hepatoma cells derived from a cancerous cell line were cultured under identical conditions. Control cells of both types were left untreated. Matched samples of both cell types were treated with the p42/44 MAP kinase cascade inhibitory drug SL327, or exposed to radiation (2×2 Gy), or treated with SL327 and exposed to radiation. Twelve hours after the final irradiation, cells were processed and the number of dead (apoptoic) cells was determined by the TUNEL assay. […] Furthermore, the effect is specific for rapidly growing cells.

The test system of the next assay is HepG2 hepatoma cells. Put plainly: TUNEL assay, HepG2 hepatoma cells after radiation. The assay is classed as cell-based. The note with it: SL327 (2 μM) + 2×2 Gy, 12 hours. As to the method: as §1, §2
Another assay has as its system cancer cells. Put plainly: Radiosensitization of cancer cells. The assay is classed as cell-based. Particulars: general statement.
Assay [4] relates to MDA-MB-231 mammary cancer cells. On the procedure: To further extend these investigations, the efficacy of U0126 was tested in the mammary cancer cell line MDA-MB-23 1. As described in the previous experiment, cells were exposed to 2 μM U0126 alone, radiation (3×2 Gy) alone, or to the combination of U0126 plus radiation. Control cells were treated with vehicle alone.
In assay [5] the test system is A431 cells.
A further assay concerns p42/44 MAP kinase. In words: MAP kinase activity in HL-60 cells (immunoprecipitation, MBP substrate). The assay is classed as cell-based, human. Particulars: ara-C. On the procedure: FIG. 8. […] HL-60 cells were exposed to ara-C (10 μM) in the absence or presence of aminomethoxyflavone (PD98059; 2.5 μM) for 3 hours. MAP kinase activity (p42-ERK1/p44-ERK2) was determined by in vitro assay. In each case, values reflect the mean ±SE of duplicate determinations, and are expressed as a percentage of basal activity present in untreated controls.
Determination of MAPK Activity: Pelleted cells were rinsed in PBS, repelleted, and flash-frozen. Cell pellets were lysed in 25 mM Hepes, pH 7.4 containing 5 mM EGTA, 5 mM EDTA, supplemented with protease inhibitors (5 mM benzamidine, 1 mM phenylmethylsulfonylfluoride, 1 mg/ml soybean trypsin inhibitor, 40 μg/ml aprotinin, 1 μM microcystin LR) phosphatase inhibitors (0.5 mM trisodium orthovanadate, 0.5 mM tetrasodium pyrophosphate), and containing 0.056% sodium deoxycholate w/v, 1% Triton X-100 v/v, and 0.1% 2-mercaptoethanol v/v. Lysates were clarified by centrifugation at 5,000× g at 4° C. for 5 min. MAPK activity was assayed using MBP as a substrate following immunoprecipitation of p42/44 MAP kinase with protein A/agarose-conjugated antibody/antisera. Preimmune controls were also run to ensure selectivity of substrate phosphorylation. Reaction mixtures consisted of immunoprecipitated enzyme, substrate, and [γ-^32 P] ATP ([…]) in 25 mM Hepes, pH 7.4 containing 15 mM MgCl2, […], 0.01% (v/v) 2-mercaptoethanol, 1 μM […]. Reactions were initiated by the addition of substrate. MAPK reactions were terminated by transfer to p81 filter paper; filters were rinsed repeatedly in 185 mM orhtophosphoric acid, and then dehydrated in acetone. Total radioactivity in filters was determined by liquid scintillometry.
HL-60 cells were exposed to ara-C in the absence or presence of PD98059. Following this treatment, the cells were eveluated for MAP kinase activity, DNA strand breakage, clonogenicity potential and extent of apoptosis.

Assay [6] deals with HL-60 cells. In words: Clonogenicity of HL-60 cells. In kind it is cell-based, human. Particulars: either agent alone. On the procedure: FIGS. 9a and 9b. […] HL-60 cells were exposed to ara-C (10 μM) in the absence or presence of aminomethoxyflavone (PD98059; 2.5 μM) for 6 hours. Apoptotic DNA damage and cell death were assessed as described in Methods. […] FIG. 9b.
Determination of Clonogenicity: Pelleted cells were rinsed extensively and prepared for soft-agar cloning. Cells were resuspended in cold PBS and seeded in 35-mm culture plates at a fixed density (400 cell/ml/well) in complete RPMI-1640 medium containing 20% fetal calf serum, 10% 5637-CM, and 0.3% Bacto agar. Cultures were mainatined for 10 to 12 days before formation of colonies (defined as groups of ≥50 cells) was scored.

Assay [7] relates to HL-60 cells. Put plainly: Taxol-mediated apoptosis of HL-60 cells. The note with it: Homo sapiens, HL-60, 6 h, read-out: cell death, taxol alone.

On to `O=C(NOCC1CC1)c1ccc(F)c(F)c1Nc1ccc(I)cc1Cl` [PD184352], for which, in the assay on MEK1 and MEK2 [1], the “mode of action at MEK1/2” value was “bind to MEK1/2 and sterically prevent Raf from binding”.
With `N#C/C(=C(/N)Sc1ccc(N)cc1)c1ccccc1C(F)(F)F` [SL327], the “percentage of apoptotic cells (TUNEL)” value in the assay with A431 cells [2] is recorded as “dramatic increase in the percentage of apoptotic cells”. For the same compound, in the assay with MEK1 and MEK2 [1], the “mode of action at MEK1/2” value was “bind to MEK1/2 and sterically prevent Raf from binding”. Also, in the assay with MEK1 and MEK2 [3], the “inhibition of MEK1 and MEK2” value was “all inhibit MEK1 and MEK2”; the “inhibition of Raf phosphorylation of MEK1 and MEK2” value is “inhibiting the ability of Raf protein kinases to phosphorylate MEK1 and MEK2”. In addition, the “response to combined drug/radiation therapy (TUNEL)” value in the assay on primary hepatocytes is given as “fairly resistant”. Besides, in the assay with HepG2 hepatoma cells, the “increase in cell killing compared to radiation alone” value is given as “approximately 2.5 fold” and the “response to combined drug/radiation treatment (TUNEL)” value is “effectively killed”. Moreover, in the assay on cancer cells, the “radiosensitization of cancer cells” value is “all cause radiosensitization of cancer cells”.
As to `N#CC(=C(N)Sc1ccccc1N)C(C#N)=C(N)Sc1ccccc1N` [U0126, 1,4-diamino-2,3-dicyano-1,4-bis[2-aminophenylthio]butadiene], the “percentage of apoptotic cells (TUNEL)” value in the assay with A431 cells [2] was “dramatic increase in the percentage of apoptotic cells”. In addition, the “decreasing cellular proliferative potential versus either treatment alone (MTT)” value in assay [4] (2 μM U0126 + 3×2 Gy) was “far more effective”. Further, the “proliferative rate (MTT)” value in assay [4] (2 μM U0126 alone or with 3×2 Gy, 3-4 days) is “Decreased proliferative rate”. In the assay with A431 cells [5] (2 μM U0126 + 3×2 Gy), the “abolishing cellular proliferation versus U0126 alone or irradiation alone (MTT)” value is given as “markedly more effective”. For the same compound, the “proliferative rate (MTT)” value in the assay on A431 cells [5] (2 μM U0126 alone or with 3×2 Gy, 4-8 days) is “Decreased proliferative rate”. For the same compound, the “mode of action at MEK1/2” value in the assay with MEK1 and MEK2 [1] is “bind to MEK1/2 and sterically prevent Raf from binding”. In addition, in the assay on MEK1 and MEK2 [3], the “inhibition of MEK1 and MEK2” value was “all inhibit MEK1 and MEK2”; the “inhibition of Raf phosphorylation of MEK1 and MEK2” value is “inhibiting the ability of Raf protein kinases to phosphorylate MEK1 and MEK2”. The “radiosensitization of cancer cells” value in the assay with cancer cells is listed as “all cause radiosensitization of cancer cells”.
In the case of `Cl.Nc1ccn([C@@H]2O[C@H](CO)[C@@H](O)[C@@H]2O)c(=O)n1` [ara-C, 1-[β-D-arabinofuranosyl] cytosine hydrochloride], the “MAP kinase activity, effect of ara-C” value in the assay on p42/44 MAP kinase is reported as “stimulation of MAP kinase”. In the assay with HL-60 cells [6], the “clonogenic potential, single agent” value is reported as “neither alone had this effect”.
In the case of `CC(=O)O[C@H]1C(=O)[C@@]2(C)[C@H]([C@H](OC(=O)c3ccccc3)[C@]3(O)C[C@H](OC(=O)[C@H](O)[C@@H](NC(=O)c4ccccc4)c4ccccc4)C(C)=C1C3(C)C)[C@]1(OC(C)=O)CO[C@@H]1C[C@@H]2O` [taxol], in the assay with HL-60 cells [7], the cytotoxicity at 0.5 µM is roughly 27%.
